Results: US11166954B2, “Dihydropyrimidine compound and preparation method and use thereof” (SICHUAN KELUN-BIOTECH BIOPHARMACEUTICAL CO., LTD., priority 2016, dated 2021)
Read-outs that look alike come from different tables or passages of the source.

What was measured:
[1] = biological target: T1, hERG potassium ion channel (Homo sapiens, UniProt Q12809); test: Predictor hERG Fluorescence Polarization Assay; type: binding; details: for IC50: hERG fluorescence polarization
T1 construct: purchased
T1 sequence (Q12809 whole entry): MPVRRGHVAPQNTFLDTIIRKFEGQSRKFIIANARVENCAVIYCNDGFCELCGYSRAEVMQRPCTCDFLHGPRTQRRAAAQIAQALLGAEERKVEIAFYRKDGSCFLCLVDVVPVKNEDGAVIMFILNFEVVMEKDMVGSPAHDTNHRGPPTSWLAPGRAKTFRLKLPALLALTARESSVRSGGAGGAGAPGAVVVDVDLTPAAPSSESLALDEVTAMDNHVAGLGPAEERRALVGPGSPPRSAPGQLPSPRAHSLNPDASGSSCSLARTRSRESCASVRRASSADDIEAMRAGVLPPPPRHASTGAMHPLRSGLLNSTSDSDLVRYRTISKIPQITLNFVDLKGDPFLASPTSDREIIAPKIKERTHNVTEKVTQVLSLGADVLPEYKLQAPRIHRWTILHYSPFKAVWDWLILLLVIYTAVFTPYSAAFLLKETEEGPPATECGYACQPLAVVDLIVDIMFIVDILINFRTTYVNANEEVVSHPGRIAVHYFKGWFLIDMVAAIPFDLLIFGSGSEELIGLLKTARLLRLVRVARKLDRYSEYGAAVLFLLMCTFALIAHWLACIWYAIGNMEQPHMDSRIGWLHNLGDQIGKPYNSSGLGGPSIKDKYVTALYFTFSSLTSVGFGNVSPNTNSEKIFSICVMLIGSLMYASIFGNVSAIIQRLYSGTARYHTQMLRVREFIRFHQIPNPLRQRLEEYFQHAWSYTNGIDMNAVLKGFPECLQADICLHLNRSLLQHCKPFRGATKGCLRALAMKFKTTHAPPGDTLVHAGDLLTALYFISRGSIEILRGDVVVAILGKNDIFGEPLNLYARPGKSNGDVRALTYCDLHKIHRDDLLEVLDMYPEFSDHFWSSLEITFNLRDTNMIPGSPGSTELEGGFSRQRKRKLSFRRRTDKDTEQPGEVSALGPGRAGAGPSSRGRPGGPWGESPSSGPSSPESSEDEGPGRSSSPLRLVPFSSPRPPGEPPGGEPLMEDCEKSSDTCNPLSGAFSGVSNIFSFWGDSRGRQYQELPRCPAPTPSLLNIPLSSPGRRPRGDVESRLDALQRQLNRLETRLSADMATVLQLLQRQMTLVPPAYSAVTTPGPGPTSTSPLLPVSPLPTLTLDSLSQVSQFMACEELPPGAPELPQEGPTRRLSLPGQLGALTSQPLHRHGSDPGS
Excerpt: In cardiac muscle cells, hERG (human Ether-a-go-go Related Gene) coded potassium channel mediates delayed rectifier potassium currents (IKr). IKr inhibition is the most important mechanism of QT interval prolongation caused by a drug.
Employing the Predictor™ hERG Fluorescence Polarization Assay, the effect of the compounds on a hERG potassium ion channel was detected.

[2] = Cytotoxicity detection (CellTiter-Glo); type: cell-based; details: human, HepG2.2.15 cells, highest concentration 150 μM
Procedure: The test compounds were diluted to 30 mM with DMSO, with 30 mM as the highest concentration, the compounds were subjected to three-fold serial dilution to various concentrations. 0.2 μL of the compounds at various concentrations were added to a 384-well plate, HepG2.2.15 cells having a concentration of 2000 cells per 50 μL were added to each well, and the highest concentration of the test compounds was 150 μM. 1 μL of DMSO was added to corresponding wells for control. The plate was incubated in a 5% CO2 incubator at 37° C. for 4 days; and 50 μL of CellTiter-Glo was added to each well after 4 days. The plate was read for detection, and a half cytotoxic concentration (CC50) was calculated.

[3] = test system: hepatitis type B virus (HBV); test: Inhibition of HBV DNA replication in HepG2.2.15 cells; type: cell-based; details: HepG2.2.15, HBV DNA replication
Procedure: The inhibitory effect of the compounds of the present invention on hepatitis type B virus (HBV) was tested. Cytotoxicity and effects on nucleic acid (DNA) replication level of the virus (HBV) of the compounds of the present invention were tested at a virus-cell level.
HepG2.2.15 cells in the logarithmic growth phase were plated in a 96-well plate at a cell concentration of 40 cells per μL. The cells were incubated in a 5% CO2 incubator at 37° C. for 3 days; and the culture medium was replaced with a new one ([…]) before adding compounds. The concentration of the stock solution of each Example compound is 200 μM.

[4] = In vivo pharmacokinetics (PK) in rats; details: male, SD, rat; for Kp: liver/plasma, 2 mg/kg
Procedure: The test compounds were administrated to male SD rats by intravenous (iv) and by gavage (po), respectively, the doses of the iv and po administration were respectively 1 mg/kg and 2 mg/kg, the solvent system for iv administration was 5% DMSO:5% solutol:90% physiological saline, and the solvent system for po administration was 0.5% MC. Blood was collected at multiple time points after iv administration and po administration for the PK study. Plasma samples and liver tissue samples were subjected to protein precipitation, followed by LC-MS/MS analysis. The mass spectrometer was API 5500, and the liquid chromatograph is a Waters ACQUITY I CLASS system; the chromatographic column was an Agela ASB C18 column (2.1 mm×50 mm, 1.9 μm); mobile phase A was water+0.1% formic acid, and phase B was acetonitrile; the flow rate was 0.4 mL/min, and the column temperature was 40° C. The ion source was an ESI source in a positive ion mode, and the scanning manner is multiple reaction monitoring (MRM).

Row | SMILES | IC50 [1] [nM] | CC50 at 4 days [2] [nM] | EC50 [3] [nM] | further results
1 | CCOC(=O)C1=C(CN2CCC(O)C(F)(F)C2)NC(c2nccs2)=N[C@H]1c1ccc(F)cc1Cl (single isomer, unassigned) [Isomer B of Example 4] | > 10000 | 51300 | 34.7 | 
2 | CCOC(=O)C1=C(CN2CC(F)(F)C2)NC(c2nccs2)=N[C@H]1c1ccc(F)cc1Cl [10-7 of Example 6, (R)-ethyl 4-(2-chloro-4-fluorophenyl)-6-((3,3-difluoroazetidin-1-yl)methyl)-2-(thiazol-2-yl)-1,4-dihydropyrimidine-5-carboxylate] |  | 130000 | 102 | 
3 | CCOC(=O)C1=C(CN2C[C@@H](O)[C@H](F)C2)NC(c2nccs2)=N[C@H]1c1ccc(F)cc1Cl [10-34 of Example 9, (R)-ethyl 4-(2-chloro-4-fluorophenyl)-6-(((3R,4R)-3-fluoro-4-hydroxypyrrolidin-1-yl)methyl)-2-(thiazol-2-yl)-1,4-dihydropyrimidine-5-carboxylate] |  | 79600 | 13.2 | 
4 | CCOC(=O)C1=C(CN2C[C@@H](F)[C@H](OCC(=O)O)C2)NC(c2nccs2)=N[C@H]1c1ccc(F)cc1Cl [10-36 of Example 10, 2-(((3R,4R)-1-(((R)-6-(2-chloro-4-fluorophenyl)-5-(ethoxycarbonyl)-2-(thiazol-2-yl)-3,6-dihydropyrimidin-4-yl)methyl)-4-fluoropyrrolidin-3-yl)oxy)acetic acid] | > 10000 | > 150000 | 98.1 | 
5 | CCOC(=O)C1=C(CN2CC(O)C(F)(F)C2)NC(c2nccs2)=N[C@H]1c1ccc(F)cc1Cl (stereo partly drawn) [10-40 of Example 11, (4R)-ethyl 4-(2-chloro-4-fluorophenyl)-6-((3,3-difluoro-4-hydroxypyrrolidin-1-yl)methyl)-2-(thiazol-2-yl)-1,4-dihydropyrimidine-5-carboxylate] | > 10000 | 73500 | 6.2 | 
6 | CCOC(=O)C1=C(CN2CC(OCC(=O)O)C(F)(F)C2)NC(c2nccs2)=N[C@H]1c1ccc(F)cc1Cl (stereo partly drawn) [10-42 of Example 12, 2-((1-(((R)-6-(2-chloro-4-fluorophenyl)-5-(ethoxycarbonyl)-2-(thiazol-2-yl)-3,6-dihydropyrimidin-4-yl)methyl)-4,4-difluoropyrrolidin-3-yl)oxy)acetic acid] | > 10000 | > 150000 | 164 | 
7 | CCOC(=O)C1=C(CN2CCC(O)C(F)(F)C2)NC(c2nccs2)=NC1c1ccc(F)cc1Cl (centres unmarked) [10-88 of Example 1, ethyl 4-(2-chloro-4-fluorophenyl)-6-((3,3-difluoro-4-hydroxypiperidin-1-yl)methyl)-2-(thiazol-2-yl)-1,4-dihydropyrimidine-5-carboxylate] | > 10000 | 61100 | 24.7 | 
8 | CCOC(=O)C1=C(CN2CCC(O)C(F)(F)C2)NC(c2nccs2)=NC1c1ccc(F)cc1Br (centres unmarked) [10-93 of Example 2, ethyl 4-(2-bromo-4-fluorophenyl)-6-((3,3-difluoro-4-hydroxypiperidin-1-yl)methyl)-2-(thiazol-2-yl)-1,4-dihydropyrimidine-5-carboxylate] | > 10000 |  |  | 
9 | CCOC(=O)C1=C(CN2CCC(OCC(=O)O)C(F)(F)C2)NC(c2nccs2)=NC1c1ccc(F)cc1Cl (centres unmarked) [10-95 of Example 5, 2-((1-((6-(2-chloro-4-fluorophenyl)-5-(ethoxycarbonyl)-2-(thiazol-2-yl)-3,6-dihydropyrimidin-4-yl)methyl)-3,3-difluoropiperidin-4-yl)oxy)acetic acid] | > 10000 | 131000 | 314 | 
10 | CCOC(=O)C1=C(CN2CC(COCC(=O)O)CC(F)(F)C2)NC(c2nccs2)=N[C@H]1c1ccc(F)cc1Cl (stereo partly drawn) [10-136 of Example 16, 2-((1-(((R)-6-(2-chloro-4-fluorophenyl)-5-(ethoxycarbonyl)-2-(thiazol-2-yl)-3,6-dihydropyrimidin-4-yl)methyl)-5,5-difluoropiperidin-3-yl)methoxy)acetic Acid] |  | 122000 | 110 | 
11 | CCOC(=O)C1=C(CN2CCOCC2COCC(=O)O)NC(c2nccs2)=N[C@H]1c1ccc(F)cc1Cl (stereo partly drawn) [10-162 of Example 15, 2-((4-(((R)-6-(2-chloro-4-fluorophenyl)-5-(ethoxycarbonyl)-2-(thiazol-2-yl)-3,6-dihydropyrimidin-4-yl)methyl)morpholin-3-yl)methoxy)acetic Acid] |  | > 150000 | 213 | 
12 | CCOC(=O)C1=C(CN2CCOC(/C=C/C(=O)O)C2)NC(c2nccs2)=N[C@H]1c1ccc(F)cc1Cl (stereo partly drawn) [10-180 of Example 14, (E)-3-(4-(((R)-6-(2-chloro-4-fluorophenyl)-5-(ethoxycarbonyl)-2-(thiazol-2-yl)-3,6-dihydropyrimidin-4-yl)methyl)morpholin-2-yl)acrylic Acid] |  | > 150000 | 23.5 | 
13 | CCOC(=O)C1=C(CN2CCOCC2/C=C/C(=O)O)NC(c2nccs2)=N[C@H]1c1ccc(F)cc1Cl (stereo partly drawn) [10-182 of Example 13, (E)-3-(4-(((R)-6-(2-chloro-4-fluorophenyl)-5-(ethoxycarbonyl)-2-(thiazol-2-yl)-3,6-dihydropyrimidin-4-yl)methyl)morpholin-3-yl)acrylic Acid] |  | > 150000 | 61.8 | 
14 | COC(=O)C1=C(CN2CCO[C@H](/C=C/C(=O)O)C2)NC(c2nccs2)=N[C@H]1c1ccc(F)cc1Br [10-229 of Example 28, (E)-3-((R)-4-(((R)-6-(2-bromo-4-fluorophenyl)-5-(methoxycarbonyl)-2-(thiazol-2-yl)-3,6-dihydropyrimidin-4-yl)methyl)morpholin-2-yl)acrylic Acid] |  | > 150000 | 8.3 | 
15 | COC(=O)C1=C(CN2CCO[C@H](/C=C/C(=O)O)C2)NC(c2nccs2)=N[C@H]1c1ccc(F)c(F)c1Cl [10-237 of Example 30, (E)-3-((R)-4-(((R)-6-(2-chloro-3,4-difluorophenyl)-5-(methoxycarbonyl)-2-(thiazol-2-yl)-3,6-dihydropyrimidin-4-yl)methyl)morpholin-2-yl)acrylic Acid] |  | > 150000 | 10.9 | 
16 | COC(=O)C1=C(CN2CCO[C@H](/C=C/C(=O)O)C2)NC(c2nccs2)=N[C@H]1c1ccc(F)c(F)c1Br [10-238 of Example 31, (E)-3-((R)-4-(((R)-6-(2-bromo-3,4-difluorophenyl)-5-(methoxycarbonyl)-2-(thiazol-2-yl)-3,6-dihydropyrimidin-4-yl)methyl)morpholin-2-yl)acrylic Acid] |  | > 150000 | 10.2 | 
17 | COC(=O)C1=C(CN2CCO[C@H](/C=C/C(=O)O)C2)NC(c2nccs2)=N[C@H]1c1ccc(F)c(F)c1C [10-239 of Example 32, (E)-3-((R)-4-(((S)-6-(3,4-difluoro-2-methylphenyl)-5-(methoxycarbonyl)-2-(thiazol-2-yl)-3,6-dihydropyrimidin-4-yl)methyl)morpholin-2-yl)acrylic Acid] |  | > 150000 | 28.9 | 
18 | COC(=O)C1=C(CN2CCO[C@H](/C=C/C(=O)O)C2)NC(c2nccs2)=N[C@H]1c1cccc(F)c1Cl [10-240 of Example 33, (E)-3-((R)-4-(((R)-6-(2-chloro-3-fluorophenyl)-5-(methoxycarbonyl)-2-(thiazol-2-yl)-3,6-dihydropyrimidin-4-yl)methyl)morpholin-2-yl)acrylic Acid] |  | > 150000 | 21.1 | 
19 | CCOC(=O)C1=C(CN2CCO[C@H](CCC(=O)O)C2)NC(c2nccs2)=N[C@H]1c1ccc(F)cc1Cl [Control compound 2, reference compound] | 1000 to 10000 |  | 89 | inhibitory effect on the hERG potassium ion channel (in words) ([1]; criterion: IC50 greater than 10 μM = no inhibitory effect): significant inhibitory effect; bioavailability ([4]; plasma, po, by gavage, 2.00 mg/kg, read-out: bioavailability (F)): 20.9%; Kp ([4]; po, po, 2.00 mg/kg, AUCINF liver/plasma, read-out: amount of exposure in liver relative to that in plasma): ~1.5; Kp ([4]; po, po, 2.00 mg/kg, Cmax liver/plasma, read-out: blood-drug concentration in liver relative to that in plasma): ~0.5; AUC(0-inf) ([4]; iv, 1.00 mg/kg, plasma): 2150 ng·h/mL; Cmax ([4]; iv, 1.00 mg/kg, plasma): 2470 ng/mL; AUC(0-inf) ([4]; po, 2.00 mg/kg, liver): 1490 ng·h/mL; Cmax ([4]; po, 2.00 mg/kg, liver): 547 ng/mL; AUC(0-inf) ([4]; po, 2.00 mg/kg, plasma): 897 ng·h/mL; Cmax ([4]; po, 2.00 mg/kg, plasma): 1250 ng/mL
